Experimental data: the supplement of paper PMC10307832

Tests used:
Test in all cases: relative viability (nuclei count vs DMSO), 5 days (fraction); higher = more cells survive
[1] = tested on: EMC-BAC-2
Summary of the method: (§1)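 A single step with final 0.05% Triton X-100, 1% formaldehyde and 1 ug/ml Hoechst fixed the cells and stained nuclei 5 days after treatment. Lung cancer cell lines in 1536-well plates had been treated by pin tool the day after seeding with one drug alone or a fixed anchor-drug dose plus five library-drug doses (not always all listed) in √10 steps, and nuclei were counted on 4× images. Relative viability is the ratio of nuclei in treated wells to nuclei in vehicle wells, taken as the median of duplicate plates.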

[2] = tested on: NCI-H1437
Summary of the method: as §1

[3] = tested on: NCI-H1395
Summary of the method: as §1

[4] = tested on: CAL-12T
Summary of the method: as §1

[5] = tested on: ABC-1
Summary of the method: as §1

[6] = tested on: NCI-H2009
Summary of the method: as §1

[7] = tested on: EKVX
Summary of the method: as §1

[8] = tested on: LCLC-97TM1
Summary of the method: as §1

[9] = tested on: SW 900
Summary of the method: as §1

[10] = tested on: LOU-NH91
Summary of the method: as §1

[11] = tested on: NCI-H727
Summary of the method: as §1

[12] = tested on: NCI-H596
Summary of the method: as §1

[13] = tested on: HCC-78
Summary of the method: as §1

[14] = tested on: NCI-H2023
Summary of the method: as §1

[15] = tested on: NCI-H2170
Summary of the method: as §1

[16] = tested on: LK-2
Summary of the method: as §1

[17] = tested on: NCI-H1650
Summary of the method: as §1

[18] = tested on: BEN
Summary of the method: as §1

[19] = tested on: HCC-827
Summary of the method: as §1

[20] = tested on: UMC-11
Summary of the method: as §1

[21] = tested on: SK-LU-1
Summary of the method: as §1

[22] = tested on: NCI-H1755
Summary of the method: as §1

[23] = tested on: EPLC-272H
Summary of the method: as §1

[24] = tested on: PC-14
Summary of the method: as §1

## Nc1cccc2c1CN(C1CCC(=O)NC1=O)C2=O (stereo not drawn) [Lenalidomide] + COc1cc2c(Oc3ccc(NC(=O)C4(C(=O)Nc5ccc(F)cc5)CC4)cc3F)ccnc2cc1OCCCN1CCOCC1 [Foretinib] (partner 0.25 µM)
[1]; first compound 0.253 µM
  relative viability: 1
[1]; first compound 0.8 µM
  relative viability: 0.967
[1]; first compound 2.53 µM
  relative viability: 1.04
[1]; first compound 8 µM
  relative viability: 0.885
[2]; first compound 0.253 µM
  relative viability: 1.34
[2]; first compound 0.8 µM
  relative viability: 1.25
[2]; first compound 2.53 µM
  relative viability: 1.32
[2]; first compound 8 µM
  relative viability: 1.46
[3]; first compound 0.253 µM
  relative viability: 0.958
[3]; first compound 0.8 µM
  relative viability: 1.09
[3]; first compound 2.53 µM
  relative viability: 1.11
[3]; first compound 8 µM
  relative viability: 0.822
[4]; first compound 0.253 µM
  relative viability: 1.21
[4]; first compound 0.8 µM
  relative viability: 1.22
[4]; first compound 2.53 µM
  relative viability: 1.23
[4]; first compound 8 µM
  relative viability: 1.29
[5]; first compound 0.253 µM
  relative viability: 0.977
[5]; first compound 0.8 µM
  relative viability: 1.19
[5]; first compound 2.53 µM
  relative viability: 1.14
[5]; first compound 8 µM
  relative viability: 0.811
[6]; first compound 0.253 µM
  relative viability: 1.24
[6]; first compound 0.8 µM
  relative viability: 1.23
[6]; first compound 2.53 µM
  relative viability: 1.32
[6]; first compound 8 µM
  relative viability: 1.22
[7]; first compound 0.253 µM
  relative viability: 0.806
[7]; first compound 0.8 µM
  relative viability: 0.772
[7]; first compound 2.53 µM
  relative viability: 0.46
[7]; first compound 8 µM
  relative viability: 0.932
[8]; first compound 0.253 µM
  relative viability: 0.906
[8]; first compound 0.8 µM
  relative viability: 0.991
[8]; first compound 2.53 µM
  relative viability: 1
[8]; first compound 8 µM
  relative viability: 0.947
[9]; first compound 0.253 µM
  relative viability: 0.785
[9]; first compound 2.53 µM
  relative viability: 0.879
[9]; first compound 8 µM
  relative viability: 0.884
[10]; first compound 0.253 µM
  relative viability: 0.97
[10]; first compound 0.8 µM
  relative viability: 0.923
[10]; first compound 2.53 µM
  relative viability: 0.942
[10]; first compound 8 µM
  relative viability: 0.898
[11]; first compound 0.253 µM
  relative viability: 0.904
[11]; first compound 0.8 µM
  relative viability: 0.929
[11]; first compound 2.53 µM
  relative viability: 1
[11]; first compound 8 µM
  relative viability: 1.05
[12]; first compound 0.253 µM
  relative viability: 0.799
[12]; first compound 2.53 µM
  relative viability: 0.908
[12]; first compound 8 µM
  relative viability: 0.789
[13]; first compound 0.253 µM
  relative viability: 0.673
[13]; first compound 0.8 µM
  relative viability: 0.526
[13]; first compound 2.53 µM
  relative viability: 0.516
[13]; first compound 8 µM
  relative viability: 0.514
[14]; first compound 0.253 µM
  relative viability: 0.89
[14]; first compound 0.8 µM
  relative viability: 1.19
[14]; first compound 2.53 µM
  relative viability: 0.753
[14]; first compound 8 µM
  relative viability: 0.931
[15]; first compound 0.253 µM
  relative viability: 0.972
[15]; first compound 0.8 µM
  relative viability: 1
[15]; first compound 2.53 µM
  relative viability: 1.04
[15]; first compound 8 µM
  relative viability: 1.02
[16]; first compound 0.253 µM
  relative viability: 1.57
[16]; first compound 0.8 µM
  relative viability: 1.17
[16]; first compound 2.53 µM
  relative viability: 1.24
[16]; first compound 8 µM
  relative viability: 0.847
[17]; first compound 0.8 µM
  relative viability: 1.46
[17]; first compound 2.53 µM
  relative viability: 1.18
[17]; first compound 8 µM
  relative viability: 1.37
[18]; first compound 0.253 µM
  relative viability: 0.822
[18]; first compound 0.8 µM
  relative viability: 0.583
[18]; first compound 2.53 µM
  relative viability: 0.812
[18]; first compound 8 µM
  relative viability: 0.409
[19]; first compound 0.253 µM
  relative viability: 1.03
[19]; first compound 0.8 µM
  relative viability: 1.05
[19]; first compound 2.53 µM
  relative viability: 1.01
[19]; first compound 8 µM
  relative viability: 1.04
[20]; first compound 0.253 µM
  relative viability: 1.02
[20]; first compound 0.8 µM
  relative viability: 1.07
[20]; first compound 2.53 µM
  relative viability: 1.06
[20]; first compound 8 µM
  relative viability: 0.953
[21]; first compound 0.253 µM
  relative viability: 0.71
[21]; first compound 0.8 µM
  relative viability: 0.727
[21]; first compound 2.53 µM
  relative viability: 1.02
[21]; first compound 8 µM
  relative viability: 0.802
[22]; first compound 0.253 µM
  relative viability: 0.915
[22]; first compound 0.8 µM
  relative viability: 0.904
[22]; first compound 2.53 µM
  relative viability: 0.886
[22]; first compound 8 µM
  relative viability: 0.782
[23]; first compound 0.253 µM
  relative viability: 0.795
[23]; first compound 0.8 µM
  relative viability: 0.658
[23]; first compound 2.53 µM
  relative viability: 0.681
[23]; first compound 8 µM
  relative viability: 0.549
[24]; first compound 0.253 µM
  relative viability: 0.945
[24]; first compound 0.8 µM
  relative viability: 1.02
[24]; first compound 2.53 µM
  relative viability: 1.01
[24]; first compound 8 µM
  relative viability: 0.982
